According to patent publication US9328386B2, “Markers for susceptibility to an inhibitor of an Src-family kinase” (Evotec (München) GmbH, priority 2011, dated 2016):
Where two headings read alike, the source gives them in different places.

Key:
[1] = system: BT-549 breast cancer cell line; assay: Cellular growth inhibition (CellTiter Glo viability assay); assay type: cell-based; conditions: Homo sapiens, BT-549, 96 h; read-out: GI50 this paper
[2] = system: MDA-MB-468 breast cancer cell line; assay: as above; assay type: cell-based; conditions: Homo sapiens, MDA-MB-468, 96 h; read-out: GI50 this paper
H1648 NSCLC cell line = conditions: dasatinib, cited from earlier work
HCC366 NSCLC cell line = conditions: dasatinib, cited from earlier work
[3] = system: MDA-MB-468 breast cancer cell line; conditions: dasatinib, cited from earlier work
[4] = system: BT-20 breast cancer cell line; conditions: dasatinib, cited from earlier work
HCC2279 NSCLC cell line = conditions: dasatinib, cited from earlier work
H2077 NSCLC cell line = conditions: dasatinib, cited from earlier work
MAP2K2 = MAP2K2 (Homo sapiens, UniProt P36507); assay: biochemical
Chain of MAP2K2 (P36507 whole entry): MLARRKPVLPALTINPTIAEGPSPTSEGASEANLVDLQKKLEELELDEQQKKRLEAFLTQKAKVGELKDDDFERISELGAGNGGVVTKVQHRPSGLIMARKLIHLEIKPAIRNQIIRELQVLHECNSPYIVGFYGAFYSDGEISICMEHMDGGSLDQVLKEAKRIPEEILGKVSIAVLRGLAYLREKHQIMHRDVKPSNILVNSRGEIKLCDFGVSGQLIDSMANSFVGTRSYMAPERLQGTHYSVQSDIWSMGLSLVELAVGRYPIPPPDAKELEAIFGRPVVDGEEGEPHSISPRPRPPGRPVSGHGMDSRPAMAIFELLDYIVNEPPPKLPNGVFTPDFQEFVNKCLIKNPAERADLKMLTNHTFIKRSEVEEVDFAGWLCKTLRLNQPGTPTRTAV
Protocol: (§1) For in vitro association experiments 4×10^8 PC9 cells were lysed in buffer containing 20 mM HEPES pH 7.5, 400 mM NaCl. 0.25% Triton X-100, 1 mM DTT, 1.5 mM MgCl2, 0.5 mM ZnCl2, 0.5 mM EDTA, 0.5 mM EGTA, 1600 U/ml Benzonase plus additives (10 μg/ml aprotinin, 10 μg/ml leupeptin, 1 mM PMSF, 1 mM Na3VO4, 10 mM NaF). After centrifugation the supernatant was adjusted to 1 M NaCl, filtered through a 0.45 μm celluloseacetate filter and subjected to KinAffinity™ beads representing several different broad-spectrum kinase inhibitors immobilized on Sepharose beads. For each in vitro association experiment 750 μl cell extract (4 mg/ml) were incubated with 30 μl KinAffinity™ beads for 2.5 h at 4° C. […] The extracted peptides were derivatized for quantitative mass spectrometry using the TMT 6-plex reagent according to the manufactures instructions and were subsequently combined for mass spectrometric analysis.
(§2) Mass spectrometric analysis of the labeled and combined peptide fractions was carried out by on-line nanoLC-MS/MS. […] The resulting fragmentation spectra were also recorded in the linear ion trap.
(§3) Regarding the search parameters, the minimal peptide length was set to 6 amino acids, trypsin was selected as proteolytic enzyme and maximally 2 missed cleavage sites were allowed. […] The intensities of the TMT reporter ions were read from the msm files. […]

MAP2K1 = MAP2K1 (Homo sapiens, UniProt Q02750); assay: biochemical
Chain of MAP2K1 (Q02750 whole entry): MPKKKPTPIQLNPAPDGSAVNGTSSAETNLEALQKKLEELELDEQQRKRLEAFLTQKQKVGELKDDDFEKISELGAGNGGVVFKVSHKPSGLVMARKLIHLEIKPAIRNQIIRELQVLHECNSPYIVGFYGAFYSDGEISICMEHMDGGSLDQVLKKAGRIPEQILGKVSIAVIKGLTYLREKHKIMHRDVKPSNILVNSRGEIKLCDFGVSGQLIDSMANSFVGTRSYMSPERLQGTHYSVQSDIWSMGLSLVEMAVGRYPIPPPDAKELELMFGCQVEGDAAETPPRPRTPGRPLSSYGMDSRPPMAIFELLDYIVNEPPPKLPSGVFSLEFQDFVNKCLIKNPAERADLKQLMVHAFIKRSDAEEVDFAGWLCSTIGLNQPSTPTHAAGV
Protocol: as §1, §2, §3

MET = MET (Homo sapiens, UniProt P08581); assay: KinAffinity target profiling; assay type: binding; design: endogenous in cells; host or cells: PC9 cells (lysate); conditions: PC9 cell extract, read-out: KD_free
Chain of MET (P08581 25-1390): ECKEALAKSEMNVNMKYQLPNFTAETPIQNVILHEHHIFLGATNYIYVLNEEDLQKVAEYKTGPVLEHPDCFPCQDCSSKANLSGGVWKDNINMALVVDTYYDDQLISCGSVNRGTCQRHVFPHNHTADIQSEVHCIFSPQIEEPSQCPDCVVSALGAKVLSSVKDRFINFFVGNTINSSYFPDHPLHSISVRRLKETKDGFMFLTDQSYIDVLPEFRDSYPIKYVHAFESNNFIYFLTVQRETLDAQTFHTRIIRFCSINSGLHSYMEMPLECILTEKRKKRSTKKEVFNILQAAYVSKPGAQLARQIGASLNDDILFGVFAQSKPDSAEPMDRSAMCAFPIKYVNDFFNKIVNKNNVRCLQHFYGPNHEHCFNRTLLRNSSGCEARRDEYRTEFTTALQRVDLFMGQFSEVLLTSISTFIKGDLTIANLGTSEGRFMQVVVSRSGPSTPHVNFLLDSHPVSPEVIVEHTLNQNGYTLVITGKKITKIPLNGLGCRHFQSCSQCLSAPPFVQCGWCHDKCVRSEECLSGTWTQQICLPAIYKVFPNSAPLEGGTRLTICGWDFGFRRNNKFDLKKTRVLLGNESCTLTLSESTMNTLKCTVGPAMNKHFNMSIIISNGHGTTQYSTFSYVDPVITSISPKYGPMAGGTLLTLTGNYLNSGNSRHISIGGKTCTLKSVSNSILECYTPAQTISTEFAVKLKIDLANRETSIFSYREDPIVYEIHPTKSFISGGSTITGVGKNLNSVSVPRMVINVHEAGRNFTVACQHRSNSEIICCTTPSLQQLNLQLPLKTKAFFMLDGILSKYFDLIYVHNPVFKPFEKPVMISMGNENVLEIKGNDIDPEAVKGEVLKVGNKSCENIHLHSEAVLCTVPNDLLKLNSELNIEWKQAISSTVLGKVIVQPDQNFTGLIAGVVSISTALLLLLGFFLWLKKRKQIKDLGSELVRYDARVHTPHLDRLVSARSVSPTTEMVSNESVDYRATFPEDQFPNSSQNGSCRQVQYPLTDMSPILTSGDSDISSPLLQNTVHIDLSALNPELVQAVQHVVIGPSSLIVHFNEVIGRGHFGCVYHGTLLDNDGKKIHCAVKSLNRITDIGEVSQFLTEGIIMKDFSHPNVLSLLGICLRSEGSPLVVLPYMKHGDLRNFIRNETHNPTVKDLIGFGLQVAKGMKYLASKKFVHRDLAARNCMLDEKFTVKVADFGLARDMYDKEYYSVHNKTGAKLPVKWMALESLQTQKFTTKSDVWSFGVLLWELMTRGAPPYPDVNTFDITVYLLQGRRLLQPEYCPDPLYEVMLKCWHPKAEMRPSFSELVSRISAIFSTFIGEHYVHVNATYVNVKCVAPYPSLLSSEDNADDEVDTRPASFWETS
Protocol: as §1, §2, §3

MLTK = biological target: T1, MLTK (Homo sapiens, UniProt Q9NYL2); assay: KinAffinity target profiling; assay type: binding; conditions: PC9 cell extract, read-out: KD_free
T1 construct: endogenous in cells; host or cells: PC9 cells (lysate)
T1 sequence (Q9NYL2 whole entry): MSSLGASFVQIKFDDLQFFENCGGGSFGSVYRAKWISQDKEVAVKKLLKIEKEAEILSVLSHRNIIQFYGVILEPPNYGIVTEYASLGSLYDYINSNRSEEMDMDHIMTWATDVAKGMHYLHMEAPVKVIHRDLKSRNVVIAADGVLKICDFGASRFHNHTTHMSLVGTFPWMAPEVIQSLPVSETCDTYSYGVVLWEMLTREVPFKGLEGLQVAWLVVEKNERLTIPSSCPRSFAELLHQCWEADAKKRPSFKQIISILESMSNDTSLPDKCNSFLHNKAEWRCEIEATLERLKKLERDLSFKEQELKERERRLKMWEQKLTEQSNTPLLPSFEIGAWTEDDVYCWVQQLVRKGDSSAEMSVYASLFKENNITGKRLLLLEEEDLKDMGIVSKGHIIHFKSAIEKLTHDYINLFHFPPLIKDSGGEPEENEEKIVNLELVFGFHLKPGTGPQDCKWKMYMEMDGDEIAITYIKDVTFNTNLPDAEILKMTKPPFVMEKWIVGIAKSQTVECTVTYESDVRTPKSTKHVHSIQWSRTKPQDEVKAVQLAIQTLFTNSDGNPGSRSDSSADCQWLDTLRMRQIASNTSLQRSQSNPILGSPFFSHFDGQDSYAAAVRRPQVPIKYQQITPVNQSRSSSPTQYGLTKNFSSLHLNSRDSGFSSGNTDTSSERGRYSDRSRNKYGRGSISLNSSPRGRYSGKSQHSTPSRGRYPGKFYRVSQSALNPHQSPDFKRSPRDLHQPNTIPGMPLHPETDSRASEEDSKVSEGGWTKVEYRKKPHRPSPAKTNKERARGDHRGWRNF
Protocol: (§4) For in vitro association experiments 4×10^8 PC9 cells were lysed in buffer containing 20 mM HEPES pH 7.5, 400 mM NaCl. 0.25% Triton X-100, 1 mM DTT, 1.5 mM MgCl2, 0.5 mM ZnCl2, 0.5 mM EDTA, 0.5 mM EGTA, 1600 U/ml Benzonase plus additives (10 μg/ml aprotinin, 10 μg/ml leupeptin, 1 mM PMSF, 1 mM Na3VO4, 10 mM NaF). After centrifugation the supernatant was adjusted to 1 M NaCl, filtered through a 0.45 μm celluloseacetate filter and subjected to KinAffinity™ beads representing several different broad-spectrum kinase inhibitors immobilized on Sepharose beads. For each in vitro association experiment 750 μl cell extract (4 mg/ml) were incubated with 30 μl KinAffinity™ beads for 2.5 h at 4° C. […] Alternatively, the inhibitor (3 nM, 30 nM, 100 nM, 300 nM, 3 μM) and KinAffinity™ beads were added simultaneously to the cell extract. […] The extracted peptides were derivatized for quantitative mass spectrometry using the TMT 6-plex reagent according to the manufactures instructions and were subsequently combined for mass spectrometric analysis.
(§5) Mass spectrometric analysis of the labeled and combined peptide fractions was carried out by on-line nanoLC-MS/MS. The samples were loaded directly by an Agilent 1200 nanoflow system (Agilent Technologies) on a 15 cm fused silica emitter (New Objective) packed in-house with reversed phase material (Reprusil-Pur C18-AQ, 3 μm, Dr. Maisch GmbH) at a flow of […]. The bound peptides were eluted by a gradient from 2% to 40% solvent B (80% ACN, 0.5% HOAc) at a flow of […] and sprayed directly into an LTQ-Orbitrap XL mass spectrometer (Thermo Fischer Scientific) at a spray voltage of 2 kV applying a nano electrospray ion source (ProxeonBiosystems). […] The resulting fragmentation spectra were also recorded in the linear ion trap.
as §3

EPHA2 = biological target: T2, EPHA2 (Homo sapiens, UniProt P29317); assay: KinAffinity target profiling; assay type: binding; conditions: PC9 cell extract, read-out: KD_free
T2 construct: PC9 cells were lysed in buffer containing 20 mM HEPES pH 7.5; endogenous in cells; host or cells: PC9 cell extract
T2 sequence (P29317 24-976): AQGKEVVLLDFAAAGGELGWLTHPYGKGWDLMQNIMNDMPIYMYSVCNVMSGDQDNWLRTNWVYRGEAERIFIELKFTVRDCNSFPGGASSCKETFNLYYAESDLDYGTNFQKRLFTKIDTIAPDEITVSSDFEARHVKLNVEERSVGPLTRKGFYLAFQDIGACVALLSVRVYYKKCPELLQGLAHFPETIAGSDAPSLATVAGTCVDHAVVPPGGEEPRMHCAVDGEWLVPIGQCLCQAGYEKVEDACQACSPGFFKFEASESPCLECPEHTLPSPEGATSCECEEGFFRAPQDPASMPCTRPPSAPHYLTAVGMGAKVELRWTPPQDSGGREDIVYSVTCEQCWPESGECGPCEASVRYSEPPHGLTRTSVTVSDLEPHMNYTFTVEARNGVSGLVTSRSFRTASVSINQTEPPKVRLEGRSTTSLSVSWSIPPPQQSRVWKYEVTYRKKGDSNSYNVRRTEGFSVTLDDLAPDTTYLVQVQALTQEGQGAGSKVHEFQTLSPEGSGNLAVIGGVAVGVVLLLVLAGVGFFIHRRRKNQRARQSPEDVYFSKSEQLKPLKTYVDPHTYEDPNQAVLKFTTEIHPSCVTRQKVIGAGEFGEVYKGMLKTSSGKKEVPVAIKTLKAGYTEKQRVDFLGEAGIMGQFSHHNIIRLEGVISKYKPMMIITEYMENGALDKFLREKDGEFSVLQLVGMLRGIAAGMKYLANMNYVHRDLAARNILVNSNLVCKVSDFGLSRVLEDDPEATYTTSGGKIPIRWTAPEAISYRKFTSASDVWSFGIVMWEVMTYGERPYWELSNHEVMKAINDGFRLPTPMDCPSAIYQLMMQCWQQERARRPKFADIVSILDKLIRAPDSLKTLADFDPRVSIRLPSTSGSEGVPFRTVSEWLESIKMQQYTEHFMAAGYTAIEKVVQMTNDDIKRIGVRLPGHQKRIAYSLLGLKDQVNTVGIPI
Protocol: as §4, §5, §3

PTK6 = biological target: T3, PTK6 (Homo sapiens, UniProt Q13882); assay: KinAffinity target profiling; assay type: binding; conditions: PC9 cell extract, read-out: KD_free
T3 construct: PC9 cells were lysed in buffer; endogenous in cells; host or cells: PC9 (NSCLC) cell extract
T3 sequence (Q13882 whole entry): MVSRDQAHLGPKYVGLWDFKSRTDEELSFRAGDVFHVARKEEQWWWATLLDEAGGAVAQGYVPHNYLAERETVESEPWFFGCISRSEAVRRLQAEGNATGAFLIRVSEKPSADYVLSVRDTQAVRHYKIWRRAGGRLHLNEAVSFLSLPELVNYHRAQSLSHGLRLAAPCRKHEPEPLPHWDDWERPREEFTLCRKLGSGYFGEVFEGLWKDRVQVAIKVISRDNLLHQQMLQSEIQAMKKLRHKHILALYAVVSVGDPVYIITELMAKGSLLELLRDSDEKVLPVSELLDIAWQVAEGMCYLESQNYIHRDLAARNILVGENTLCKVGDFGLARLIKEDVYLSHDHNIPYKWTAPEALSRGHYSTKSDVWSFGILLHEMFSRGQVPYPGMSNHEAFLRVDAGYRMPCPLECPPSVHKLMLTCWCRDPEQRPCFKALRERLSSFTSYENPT
Protocol: as §4, §5, §3

[5] = Sos et al. 2009, read-out: GI50 literature
[6] = Huang et al. 2007, read-out: GI50 literature

| Kd (MAP2K2) [nM] | Kd (MAP2K1) [nM] | Kd (MET) [nM] | Kd (MLTK) [nM] | Kd (EPHA2) [nM] | Kd (PTK6) [nM] | SMILES | GI50 [1] [nM] | GI50 [2] [nM] | GI50 (H1648 NSCLC cell line; [5]) [nM] | Class (H1648 NSCLC cell line) [nM] | GI50 (HCC366 NSCLC cell line; [5]) [nM] | IC50 (HCC366 NSCLC cell line; read-out: Class) [nM] | GI50 [3, 6] [nM] | Sensitivity class [3] [nM] | GI50 [4, 6] [nM] | IC50 ([4]; read-out: Class) [nM] | GI50 (HCC2279 NSCLC cell line; [5]) [nM] | IC50 (HCC2279 NSCLC cell line; read-out: Class) [nM] | GI50 (H2077 NSCLC cell line; [5]) [nM] | Sensitivity class (H2077 NSCLC cell line) [nM] |
| --- | --- | --- | --- | --- | --- | --- | --- | --- | --- | --- | --- | --- | --- | --- | --- | --- | --- | --- | --- | --- |
|  |  |  |  |  |  | Cc1nc(Nc2ncc(C(=O)Nc3c(C)cccc3Cl)s2)cc(N2CCN(CCO)CC2)n1 [dasatinib, N-(2-chloro-6-methylphenyl)-2-[[6-[4-(2-hydroxyethyl)piperazin-1-yl]-2-methylpyrimidin-4-yl]amino]-1,3-thiazole-5-carboxamide] | 1710 | 2800 | 59.3 | < 1000 | 482 | < 1000 | 7130 | > 1000 | 165 | < 1000 | 139 | < 1000 | 10100 | > 1000 |
| 2310 | 1230 | 6660 | 750 | 108 | 30 | CN1CCN(CCOc2cc(OC3CCOCC3)c3c(Nc4c(Cl)ccc5c4OCO5)ncnc3c2)CC1 [saracatinib, N-(5-Chloro-1,3-benzodioxol-4-yl)-7-[2-(4-methyl-1-piperazinyl)ethoxy]-5-[(tetrahydro-2H-pyran-4-yl)oxy]-4-quinazolinamine] |  |  |  |  |  |  |  |  |  |  |  |  |  |  |
